Columns and labels:
Type in all cases: cell-based, human
[1] = system: HeLa rtTA-HIV-ΔMls cells; conditions: XTT
Experimental: Drug/compounds were tested for effects on HIV-1 gene expression using inducible Tet-ON HIV-1 cell lines [HeLa rtTA-HIV-ΔMls or rtTA-HIV(Gag-GFP)] containing a HIV-1 (LAI) provirus activatable by Dox or tetracycline transactivator (tTA)[69]. The rtTA-HIV-ΔMls provirus was modified and used as previously reported[9]–[11],[70]. The rtTA-HIV(Gag-GFP) provirus was generated by deletion of the PR and RT coding regions within pol and insertion of GFP to the 3′ of gag, creating GFP fused to the C-terminal of Gag. After 4 h of drug/compound treatment, HIV-1 gene expression was activated with Dox (2 μg/mL) or tTA (described below). Equal concentrations of DMSO were present in each experiment. After ~20 h, cells and media were harvested to monitor the effects of drug/compound treatments as described below. HIV-1 gene expression was quantified via p24^CA ELISA or monitoring Gag-GFP fluorescence in cells as described below. In parallel, cell viability of treatments were assessed by XTT assay (Sigma-Aldrich, #TOX2). For confirmatory tests, the CD4^+ HIV-1 T-cell line, 24ST1NLESG, from J. Dougherty, was treated with drug/compounds and HIV-1 gene expression activated by 1.8 µM of phorbol 12-myristate 13-acetate (PMA) as previously described[10],[11],[71].
Supplementary Figure S2. CSs inhibit HIV-1 gene expression in a dose-dependent manner. […]

[2] = system: HIV-infected PBMCs; assay: Ex vivo therapeutic index (CC50/IC50) in HIV-infected PBMCs; conditions: CC50/IC50, day 14, HIV-infected PBMCs
Source text: (§1) Without median toxic dose (TD50) and half-maximal effective concentration (EC50) data available to calculate TIs (in vivo) from HIV patients treated with CSs, we determined the following TIs for each cell type treated with a CS (summarized in Supplementary Table S1): in vitro TIs from HeLa rtTA-HIV-ΔMls cells using CC20/IC50 (instead of CC50/IC50), in vitro TIs from 24ST1NLESG cells using CC50/IC50, and ex vivo TIs from HIV-infected PBMCs using CC50/IC50 (at day 14 of culture approximated from available cell viability trends for CC50s of Supplementary Fig. S13 and inferred near maximal IC50s).
Supplementary Figure S13. Estimation of the approximate ex vivo therapeutic indices of several
CSs. Ex vivo TIs were calculated from CC50/IC50 from day 14 of culture of HIV-infected patient PBMCs treated with CSs. CC50s were estimated/extrapolated from data points by their trends (dashed arrows) from XTT assays of cell viability (gray circles) and their inferred near maximal IC50s estimated from results on HIV-1 p24CA (Gag) production (black circles) from Figures 2f-h and some data points published on digoxin [Wong et al. (2013). PLoS Pathog 9(3):e1003241]. […]

[3] = system: HeLa rtTA-HIV-ΔMls cells; assay: In vitro therapeutic index (CC20/IC50) in HeLa rtTA-HIV-ΔMls cells
Source text: as §1
Supplementary Table S1. Comparison of the in vitro (IVTI) and ex vivo therapeutic indices (EVTIs) of CSs and their impact on the expression of essential HIV-1 proteins.
Notes: data for CC20, CC50, and IC50s for each drug/compound were estimated from dose response curves in Figures 1-2, Supplementary Table S1, Supplementary Figures S2, S5, and S13, and Wong et al.
">" means the estimate has not been accurately determined but is greater than the highest concentration […]
"( )" indicates preliminary data that was not shown. aCC20 instead of CC50 was estimated from dose response curves and used for calculation of IVTIs. bCells were treated at ~IC90of a CS.
(1 picture or pasted object on this page, not shown here)

C[C@]12CC[C@H](O)C[C@H]1CC[C@@H]1[C@@H]2CC[C@]2(C)[C@@H](C3=CC(=O)OC3)CC[C@]12O [Digitoxigenin]
toxicity ([1]; at 1000 nM): no toxicity
better approximate ex vivo TI than FDA-approved counterparts [2]: ≥ 1.5 fold

C[C@]12CC[C@H](O)C[C@H]1CC[C@@H]1[C@@H]2C[C@@H](O)[C@]2(C)[C@@H](C3=CC(=O)OC3)CC[C@]12O [Digoxigenin]
CC20 (cytotoxic effects ≥20%) [1]: 600 nM

C[C@@H]1O[C@@H](O[C@H]2C[C@@H](O)[C@]3(CO)[C@H]4[C@H](O)C[C@]5(C)[C@@H](C6=CC(=O)OC6)CC[C@]5(O)[C@@H]4CC[C@]3(O)C2)[C@H](O)[C@H](O)[C@H]1O [Ouabain]
better in vitro TI than digoxin [3]: 1.2 fold

Source: article PMC5770468, “Cardiac glycoside/aglycones inhibit HIV-1 gene expression by a mechanism requiring MEK1/2-ERK1/2 signaling” (Scientific Reports, 2018)
